Assay results as given in patent US20250288683A1, “TETRAHYDROISOQUINOLINE HETEROBIFUNCTIONAL BCL-XL DEGRADERS” (Treeline Biosciences, Inc., priority 2022, published 2025).

Target: T1, Human BCL-XL protein (N-terminal HiBiT tagged BCL-XL in HT1080 cells) (Homo sapiens, UniProt Q07817)
T1 construct: expressed in transfected cells; host or cells: HT-1080 (ATCC CCL-121), stably transduced with lentivirus pLV-UBC-N-HiBiT-BCL-XL-PGK-puro and selected with puromycin
Experiment: HiBiT based degradation assay
Format: cell-based
Conditions: HT1080 cells expressing N-terminal HiBiT tagged BCL-XL, normalized with DMSO control

T1 sequence (Q07817 whole entry): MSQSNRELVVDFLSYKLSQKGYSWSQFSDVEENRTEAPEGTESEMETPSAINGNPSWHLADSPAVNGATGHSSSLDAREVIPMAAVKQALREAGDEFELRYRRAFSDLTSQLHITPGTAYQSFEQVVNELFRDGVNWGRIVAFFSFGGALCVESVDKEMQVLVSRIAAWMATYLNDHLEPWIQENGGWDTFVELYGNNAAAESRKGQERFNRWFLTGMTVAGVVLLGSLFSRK

SMILES	Ymin (6 h)	Ymin (24 h)
Cc1ncsc1-c1ccc([C@H](C)NC(=O)[C@@H]2C[C@@H](O)CN2C(=O)[C@@H](NC(=O)CCCCOc2cccc(-c3ccc(N4CCc5cccc(C(=O)Nc6nc7ccccc7s6)c5C4)nc3C(=O)O)c2C)C(C)(C)C)cc1 [Compound 108a, 6-[8-(1,3-benzothiazol-2-ylcarbamoyl)-3,4-dihydro-1H-isoquinolin-2-yl]-3-[3-[5-[[(1S)-1-[(2S,4R)-4-hydroxy-2-[[(1S)-1-[4-(4-methylthiazol-5-yl)phenyl]ethyl]carbamoyl]pyrrolidine-1-carbonyl]-2,2-dimethyl-propyl]amino]-5-oxo-pentoxy]-2-methyl-phenyl]pyridine-2-carboxylic acid]	A (Ymin < 50%)	A (Ymin < 50%)
Cc1ncsc1-c1ccc([C@H](C)NC(=O)[C@@H]2C[C@@H](O)CN2C(=O)[C@@H](NC(=O)CN2CCC(CCOc3cccc(-c4ccc(N5CCc6cccc(C(=O)Nc7nc8ccccc8s7)c6C5)nc4C(=O)O)c3C)CC2)C(C)(C)C)cc1 [Compound 123a, 6-(8-(benzo[d]thiazol-2-ylcarbamoyl)-3,4-dihydroisoquinolin-2 (1H)-yl)-3-(3-(2-(1-(2-(((S)-1-((2S,4R)-4-hydroxy-2-(((S)-1-(4-(4-methylthiazol-5-yl)phenyl)ethyl)carbamoyl)pyrrolidin-1-yl)-3,3-dimethyl-1-oxobutan-2-yl)amino)-2-oxoethyl)piperidin-4-yl)ethoxy)-2-methylphenyl)picolinic acid]		A (Ymin < 50%)
Cc1ncsc1-c1ccc([C@H](C)NC(=O)[C@@H]2C[C@@H](O)CN2C(=O)[C@@H](NC(=O)CC[C@H](C)c2ccc(Oc3cccc(-c4ccc(N5CCc6cccc(C(=O)Nc7nc8ccccc8s7)c6C5)nc4C(=O)O)c3C)cc2)C(C)(C)C)cc1 (single isomer, unassigned) [Compound 129a]		A (Ymin < 50%)
Cc1ncsc1-c1ccc([C@H](C)NC(=O)[C@@H]2C[C@@H](O)CN2C(=O)[C@@H](NC(=O)C(C)(C)[C@H]2CC[C@@H](Oc3cccc(-c4ccc(N5CCc6cccc(C(=O)Nc7nc8ccccc8s7)c6C5)nc4C(=O)O)c3C)CC2)C(C)(C)C)cc1 (single isomer, unassigned) [Compound 138a]		A (Ymin < 50%)
Cc1ncsc1-c1ccc([C@H](C)NC(=O)[C@@H]2C[C@@H](O)CN2C(=O)[C@@H](n2cc(CCc3ccc(Oc4cccc(-c5ccc(N6CCc7cccc(C(=O)Nc8nc9ccccc9s8)c7C6)nc5C(=O)O)c4C)cc3)nn2)C(C)(C)C)cc1 [Compound 132a, 6-(8-(benzo[d]thiazol-2-ylcarbamoyl)-3,4-dihydroisoquinolin-2 (1H)-yl)-3-(3-(4-(2-(1-((S)-1-((2S,4R)-4-hydroxy-2-(((S)-1-(4-(4-methylthiazol-5-yl)phenyl)ethyl)carbamoyl)pyrrolidin-1-yl)-3,3-dimethyl-1-oxobutan-2-yl)-1H-1,2,3-triazol-4-yl)ethyl)phenoxy)-2-methylphenyl)picolinic acid]		B (50% ≤ Ymin < 70%)
Cc1ncsc1-c1ccc([C@H](C)NC(=O)[C@@H]2C[C@@H](O)CN2C(=O)[C@@H](NC(=O)C[C@@H](Cc2ccc(Oc3cccc(-c4ccc(N5CCc6cccc(C(=O)Nc7nc8ccccc8s7)c6C5)nc4C(=O)O)c3C)cc2)C(F)(F)F)C(C)(C)C)cc1 (relative stereo) [Compound 131b, 6-(8-(benzo[d]thiazol-2-ylcarbamoyl)-3,4-dihydroisoquinolin-2 (1H)-yl)-3-(3-(4-((R)-4-(((S)-1-((2S,4R)-4-hydroxy-2-(((S)-1-(4-(4-methylthiazol-5-yl)phenyl)ethyl)carbamoyl)pyrrolidin-1-yl)-3,3-dimethyl-1-oxobutan-2-yl)amino)-4-oxo-2-(trifluoromethyl)butyl)phenoxy)-2-methylphenyl)picolinic acid]		B (50% ≤ Ymin < 70%)
Cc1ncsc1-c1ccc([C@H](C)NC(=O)[C@@H]2C[C@@H](O)CN2C(=O)[C@@H](NC(=O)CCCc2ccc(Oc3cccc(-c4ccc(N5CCc6cccc(C(=O)Nc7nc8ccccc8s7)c6C5)nc4C(=O)O)c3C)cc2)C(C)(C)C)cc1 [Compound 115a, 6-(8-(benzo[d]thiazol-2-ylcarbamoyl)-3,4-dihydroisoquinolin-2 (1H)-yl)-3-(3-(4-(4-(((S)-1-((2S,4R)-4-hydroxy-2-(((S)-1-(4-(4-methylthiazol-5-yl)phenyl)ethyl)carbamoyl)pyrrolidin-1-yl)-3,3-dimethyl-1-oxobutan-2-yl)amino)-4-oxobutyl)phenoxy)-2-methylphenyl)picolinic acid]	A (Ymin < 50%)	A (Ymin < 50%)
CC(=O)O[C@@H]1C[C@@H](C(=O)N[C@@H](C)c2ccc(-c3scnc3C)cc2)N(C(=O)[C@@H](NC(=O)CCCc2ccc(Oc3cccc(-c4ccc(N5CCc6cccc(C(=O)Nc7nc8ccccc8s7)c6C5)nc4C(=O)O)c3C)cc2)C(C)(C)C)C1 [Compound 118a, 3-[3-[4-[4-[[(1S)-1-[(2S,4R)-4-acetoxy-2-[[(1S)-1-[4-(4-methylthiazol-5-yl)phenyl]ethyl]carbamoyl]pyrrolidine-1-carbonyl]-2,2-dimethyl-propyl]amino]-4-oxo-butyl]phenoxy]-2-methyl-phenyl]-6-[8-(1,3-benzothiazol-2-ylcarbamoyl)-3,4-dihydro-1H-isoquinolin-2-yl]pyridine-2-carboxylic acid]		B (50% ≤ Ymin < 70%)
Cc1ncsc1-c1ccc(CNC(=O)[C@@H]2C[C@@H](O)CN2C(=O)[C@@H](NC(=O)C2(F)CC2)C(C)(C)SCCCCCCCOc2cccc(-c3ccc(N4CCc5cccc(C(=O)Nc6nc7ccccc7s6)c5C4)nc3C(=O)O)c2C)cc1 [Compound 140a]		B (50% ≤ Ymin < 70%)
Cc1ncsc1-c1ccc([C@H](C)NC(=O)[C@@H]2C[C@@H](O)CN2C(=O)[C@@H](NC(=O)CCCc2ccc(Oc3cccc(-c4ccc(N5CCc6cccc(C(=O)Nc7nc8ccccc8s7)c6C5)nc4C(=O)O)c3C)cc2)C(C)(C)C)nc1 [Compound 121a, 6-[8-(1,3-benzothiazol-2-ylcarbamoyl)-3,4-dihydro-1H-isoquinolin-2-yl]-3-[3-[4-[4-[[(1S)-1-[(2S,4R)-4-hydroxy-2-[[(1S)-1-[5-(4-methylthiazol-5-yl)-2-pyridyl]ethyl]carbamoyl]pyrrolidine-1-carbonyl]-2,2-dimethyl-propyl]amino]-4-oxo-butyl]phenoxy]-2-methyl-phenyl]pyridine-2-carboxylic acid]		A (Ymin < 50%)
Cc1ncsc1-c1ccc([C@H](C)NC(=O)[C@@H]2C[C@@H](O)CN2C(=O)[C@@H](NC(=O)CN2CCC(COc3cccc(-c4ccc(N5CCc6cccc(C(=O)Nc7nc8ccccc8s7)c6C5)nc4C(=O)O)c3C)CC2)C(C)(C)C)cc1 [Compound 127a, 6-[8-(1,3-benzothiazol-2-ylcarbamoyl)-3,4-dihydro-1H-isoquinolin-2-yl]-3-[3-[[1-[2-[[(1S)-1-[(2S,4R)-4-hydroxy-2-[[(1S)-1-[4-(4-methylthiazol-5-yl)phenyl]ethyl]carbamoyl]pyrrolidine-1-carbonyl]-2,2-dimethyl-propyl]amino]-2-oxo-ethyl]-4-piperidyl]methoxy]-2-methyl-phenyl]pyridine-2-carboxylic acid]		A (Ymin < 50%)
